Measured values: patent publication US20250282785A1, “PYRROLIDINONE DERIVATIVES AS INHIBITORS OF NF KAPPA B INDUCING KINASE” (priority 2022, published 2025)

Key:
[1] = test system: p-IKKα levels in L363 (NIK translocated multiple myeloma) cells; experiment: Effect of compounds on p-IKKα levels in L363 cells (AlphaLISA SureFire Ultra); type: cell-based; details: Homo sapiens, L-363; L363 cells, BAFF stimulated, MG132, 6 h; average of values; read-out: Assay 2 IC50
How it was run: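 L363 myeloma cells were BAFF-stimulated (250 ng/ml) overnight in DMEM/0.5% BSA, then exposed 6 h at 37° C to compound (11-point 1:3 series, 0.3% DMSO) with BAFF plus 10 uM MG132. p-IKKα (Ser 176/180) was read by AlphaLISA SureFire Ultra in lysates. IC50 came from sigmoidal fits normalized to stimulated and unstimulated controls.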

[2] = biological target: Recombinant Human NF-Kappab-Inducing Kinase (NIK/MAP3K14) (Homo sapiens, UniProt Q99558); experiment: Inhibition of auto-phosphorylation of recombinant human NIK/MAP3K14 (AlphaScreen); type: biochemical; details: NIK/MAP3K14 auto-phosphorylation, 5 microM ATP, 1 nM enzyme, 2 h at 25° C.; average of values; read-out: Assay 1 IC50
Recombinant Human NF-Kappab-Inducing Kinase (NIK/MAP3K14), sequence (Q99558 whole entry): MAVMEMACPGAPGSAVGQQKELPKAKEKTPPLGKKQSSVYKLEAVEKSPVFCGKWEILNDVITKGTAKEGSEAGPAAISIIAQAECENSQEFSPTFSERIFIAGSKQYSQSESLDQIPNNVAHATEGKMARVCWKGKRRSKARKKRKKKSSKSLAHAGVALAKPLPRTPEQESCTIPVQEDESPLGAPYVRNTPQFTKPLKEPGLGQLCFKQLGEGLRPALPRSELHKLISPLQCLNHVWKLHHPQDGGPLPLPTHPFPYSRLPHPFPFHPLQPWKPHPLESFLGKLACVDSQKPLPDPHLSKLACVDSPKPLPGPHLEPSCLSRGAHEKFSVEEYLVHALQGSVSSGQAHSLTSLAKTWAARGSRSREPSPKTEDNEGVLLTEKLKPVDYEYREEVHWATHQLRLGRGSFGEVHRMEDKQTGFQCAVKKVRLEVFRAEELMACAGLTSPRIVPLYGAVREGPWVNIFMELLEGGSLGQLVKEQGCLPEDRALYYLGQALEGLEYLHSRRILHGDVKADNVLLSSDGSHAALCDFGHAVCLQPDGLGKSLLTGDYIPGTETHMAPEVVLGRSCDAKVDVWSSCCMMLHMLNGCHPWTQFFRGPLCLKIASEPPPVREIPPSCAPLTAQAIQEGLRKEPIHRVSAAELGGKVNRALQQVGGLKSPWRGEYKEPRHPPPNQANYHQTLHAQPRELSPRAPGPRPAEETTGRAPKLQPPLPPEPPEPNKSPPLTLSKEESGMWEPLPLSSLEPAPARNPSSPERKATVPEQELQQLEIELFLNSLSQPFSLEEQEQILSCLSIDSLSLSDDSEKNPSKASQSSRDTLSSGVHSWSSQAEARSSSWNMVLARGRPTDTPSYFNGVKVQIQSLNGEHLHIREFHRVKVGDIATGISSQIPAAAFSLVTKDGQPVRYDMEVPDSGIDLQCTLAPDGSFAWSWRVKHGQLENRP
How it was run: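 GST-tagged NIK (1 nM) auto-phosphorylation with 5 µM ATP in Tris pH 7.5/MgCl2 buffer, 0.7% DMSO, 2 h at 25 °C. Phospho-IKK Ser176/180 antibody detected by AlphaScreen beads. Signal normalized to full-enzyme and no-ATP controls; IC50 from sigmoidal fit of % inhibition vs log concentration.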

| Structure (SMILES) | IC50 [1] [µM] | IC50 [2] [µM] |
| --- | --- | --- |
| CN1CC[C@@](O)(c2cc(-c3cccc(-c4ccn5nccc5n4)c3)no2)C1=O [Example 68, (R)-3-Hydroxy-1-methyl-3-(3-(3-(pyrazolo[1,5-a]pyrimidin-5-yl)phenyl)isoxazol-5-yl)pyrrolidin-2-one] | > 0.501 | > 0.501 |
| CN1CC[C@@](O)(c2cc(-c3cccc(-c4ccc5ncoc5c4)c3)no2)C1=O [Example 69, (R)-3-(3-(3-(Benzo[d]oxazol-6-yl)phenyl)isoxazol-5-yl)-3-hydroxy-1-methylpyrrolidin-2-one] | > 0.501 | > 0.501 |
| CN1CC[C@@](O)(c2cc(-c3cccc(-c4cn5ccnc5cn4)c3)no2)C1=O [Example 70, (R)-3-Hydroxy-3-(3-(3-(imidazo[1,2-a]pyrazin-6-yl)phenyl)isoxazol-5-yl)-1-methylpyrrolidin-2-one] | > 0.501 | > 0.501 |
| CN1CC[C@@](O)(c2cc(-c3cccc(-c4ccc5nccn5c4)c3)no2)C1=O [Example 71, (R)-3-Hydroxy-3-(3-(3-(imidazo[1,2-a]pyridin-6-yl)phenyl)isoxazol-5-yl)-1-methylpyrrolidin-2-one] | > 0.501 | > 0.501 |
| CN1CC[C@@](O)(c2cc(-c3cccc(-c4ncnc5sccc45)c3)no2)C1=O [Example 72, (R)-3-Hydroxy-1-methyl-3-(3-(3-(thieno[2,3-d]pyrimidin-4-yl)phenyl)isoxazol-5-yl)pyrrolidin-2-one] | > 0.501 | > 0.501 |
| CCc1c[nH]c2ncnc(-c3cccc(-c4cc([C@]5(O)CCN(C)C5=O)on4)c3)c12 [Example 73, (R)-3-(3-(3-(5-Ethyl-7H-pyrrolo[2,3-d]pyrimidin-4-yl)phenyl)isoxazol-5-yl)-3-hydroxy-1-methylpyrrolidin-2-one] | > 0.501 | > 0.501 |
| CN1CC[C@@](O)(c2cc(-c3cccc(-c4ccc5nnc(N)n5c4)c3)no2)C1=O [Example 74, (R)-3-(3-(3-(3-Amino-[1,2,4]triazolo[4,3-a]pyridin-6-yl)phenyl)isoxazol-5-yl)-3-hydroxy-1-methylpyrrolidin-2-one] | > 0.501 | > 0.501 |
| CN1CC[C@@](O)(c2cc(-c3cccc(-c4cc5c[nH]nc5cn4)c3)no2)C1=O [Example 75, (R)-3-(3-(3-(2H-pyrazolo[3,4-c]pyridin-5-yl)phenyl)isoxazol-5-yl)-3-hydroxy-1-methylpyrrolidin-2-one] | > 0.501 | 0.1 to 0.5 |
| COc1cc(-c2cccc(-c3cc([C@]4(O)CCN(C)C4=O)on3)c2)cc2c1cnn2C [Example 76, (R)-3-Hydroxy-3-(3-(3-(4-methoxy-1-methyl-1H-indazol-6-yl)phenyl)isoxazol-5-yl)-1-methylpyrrolidin-2-one] | > 0.501 | 0.1 to 0.5 |
| CN1CC[C@@](O)(c2cc(-c3cccc(-c4cccc5[nH]ccc45)c3)no2)C1=O [Example 77, (R)-3-(3-(3-(1H-Indol-4-yl)phenyl)isoxazol-5-yl)-3-hydroxy-1-methylpyrrolidin-2-one] | > 0.501 | > 0.501 |
| CN1CC[C@@](O)(c2cc(-c3cccc(-c4ccc5cnn(C)c5n4)c3)no2)C1=O [Example 78, (R)-3-Hydroxy-1-methyl-3-(3-(3-(1-methyl-1H-pyrazolo[3,4-b]pyridin-6-yl)phenyl)isoxazol-5-yl)pyrrolidin-2-one] | > 0.501 | 0.1 to 0.5 |
| Cc1cn2cc(-c3cccc(-c4cc([C@]5(O)CCN(C)C5=O)on4)c3)ccc2n1 [Example 79, (R)-3-Hydroxy-1-methyl-3-(3-(3-(2-methylimidazo[1,2-a]pyridin-6-yl)phenyl)isoxazol-5-yl)pyrrolidin-2-one] | > 0.501 | > 0.501 |
| CN1CC[C@@](O)(c2cc(-c3cccc(-c4ccc5c(c4)N(C)C(=O)CN5)c3)no2)C1=O [Example 80, (R)-7-(3-(5-(3-Hydroxy-1-methyl-2-oxopyrrolidin-3-yl)isoxazol-3-yl)phenyl)-1-methyl-3,4-dihydroquinoxalin-2(1H)-one] | > 0.501 | > 0.501 |
| COc1cc2c(cc1-c1cccc(-c3cc([C@]4(O)CCN(C)C4=O)on3)c1)COC2 [Example 81, (R)-3-Hydroxy-3-(3-(3-(6-methoxy-1,3-dihydroisobenzofuran-5-yl)phenyl)isoxazol-5-yl)-1-methylpyrrolidin-2-one] | > 0.501 | > 0.501 |
| CN1CC[C@@](O)(c2cc(-c3cccc(-c4cccc5c(=O)[nH]ccc45)c3)no2)C1=O [Example 82, (R)-5-(3-(5-(3-Hydroxy-1-methyl-2-oxopyrrolidin-3-yl)isoxazol-3-yl)phenyl)isoquinolin-1 (2H)-one] | > 0.501 | > 0.501 |
| CN1CC[C@@](O)(c2cc(-c3cccc(-c4cc5[nH]ncc5cn4)c3)no2)C1=O [Example 83, (R)-3-(3-(3-(1H-pyrazolo[4,3-c]pyridin-6-yl)phenyl)isoxazol-5-yl)-3-hydroxy-1-methylpyrrolidin-2-one] | > 0.501 | > 0.501 |
| Cc1n[nH]c2nc(-c3cccc(-c4cc([C@]5(O)CCN(C)C5=O)on4)c3)cc(C(N)=O)c12 [Example 84, (R)-6-(3-(5-(3-Hydroxy-1-methyl-2-oxopyrrolidin-3-yl)isoxazol-3-yl)phenyl)-3-methyl-1H-pyrazolo[3,4-b]pyridine-4-carboxamide] | > 0.501 | > 0.501 |
| CN1CC[C@@](O)(c2cc(-c3cccc(-c4cc(C5CC5)nc(C(N)=O)n4)c3)no2)C1=O [Example 85, (R)-4-Cyclopropyl-6-(3-(5-(3-hydroxy-1-methyl-2-oxopyrrolidin-3-yl)isoxazol-3-yl)phenyl)pyrimidine-2-carboxamide] | > 0.501 | < 0.1 |
| CN1CC[C@@](O)(c2cc(-c3cccc(-c4cccc5cnc(N)nc45)c3)no2)C1=O [Example 86, (R)-3-(3-(3-(2-Aminoquinazolin-8-yl)phenyl)isoxazol-5-yl)-3-hydroxy-1-methylpyrrolidin-2-one] | > 0.501 | < 0.1 |
| COc1ccc(-c2cccc(-c3cc([C@]4(O)CCN(C)C4=O)on3)c2)nc1C(N)=O [Example 87, (R)-6-(3-(5-(3-Hydroxy-1-methyl-2-oxopyrrolidin-3-yl)isoxazol-3-yl)phenyl)-3-methoxypicolinamide] | > 0.501 | > 0.501 |
| CN1CC[C@@](O)(c2cc(-c3cccc(-c4cc(C5CC5)c(N)c(C(N)=O)n4)c3)no2)C1=O [Example 88, (R)-3-Amino-4-cyclopropyl-6-(3-(5-(3-hydroxy-1-methyl-2-oxopyrrolidin-3-yl)isoxazol-3-yl)phenyl)picolinamide] | < 0.1 | < 0.1 |
| CN1CC[C@@](O)(c2cc(-c3cccc(-c4nc(C(N)=O)c(N)cc4F)c3)no2)C1=O [Example 89, (R)-3-Amino-5-fluoro-6-(3-(5-(3-hydroxy-1-methyl-2-oxopyrrolidin-3-yl)isoxazol-3-yl)phenyl)picolinamide] | 0.1 to 0.5 | < 0.1 |
| CCn1cnc2c(C(N)=O)nc(-c3cccc(-c4cc([C@]5(O)CCN(C)C5=O)on4)c3)cc21 [Example 90, (R)-1-Ethyl-6-(3-(5-(3-hydroxy-1-methyl-2-oxopyrrolidin-3-yl)isoxazol-3-yl)phenyl)-1H-imidazo[4,5-c]pyridine-4-carboxamide] | > 0.501 | 0.1 to 0.5 |
| CN1CC[C@@](O)(c2cc(-c3cccc(-c4cc(C(F)(F)F)cc(C(N)=O)n4)c3)no2)C1=O [Example 91, (R)-6-(3-(5-(3-Hydroxy-1-methyl-2-oxopyrrolidin-3-yl)isoxazol-3-yl)phenyl)-4-(trifluoromethyl)picolinamide] | 0.1 to 0.5 | < 0.1 |
| CN1CC[C@@](O)(c2cc(-c3cccc(-c4cn5cccc(C(N)=O)c5n4)c3)no2)C1=O [Example 92, (R)-2-(3-(5-(3-Hydroxy-1-methyl-2-oxopyrrolidin-3-yl)isoxazol-3-yl)phenyl) imidazo[1,2-a]pyridine-8-carboxamide] | > 0.501 | 0.1 to 0.5 |
| CN1CC[C@@](O)(c2cc(-c3cccc(-c4nc(C(N)=O)n5c4CCCC5)c3)no2)C1=O [Example 93, (R)-1-(3-(5-(3-Hydroxy-1-methyl-2-oxopyrrolidin-3-yl)isoxazol-3-yl)phenyl)-5,6,7,8-tetrahydroimidazo[1,5-a]pyridine-3-carboxamide] | < 0.1 | < 0.1 |
| CN1CC[C@@](O)(c2cc(-c3cccc(-c4cc(C(N)=O)nc5[nH]ccc45)c3)no2)C1=O [Example 94, (R)-4-(3-(5-(3-Hydroxy-1-methyl-2-oxopyrrolidin-3-yl)isoxazol-3-yl)phenyl)-1H-pyrrolo[2,3-b]pyridine-6-carboxamide] | > 0.501 | > 0.501 |
| CN1CC[C@@](O)(c2cc(-c3cccc(-n4nc(C(=O)O)c5c4CCCC5)c3)no2)C1=O [Example 95, (R)-1-(3-(5-(3-Hydroxy-1-methyl-2-oxopyrrolidin-3-yl)isoxazol-3-yl)phenyl)-4,5,6,7-tetrahydro-1H-indazole-3-carboxylic acid] | > 0.501 | > 0.501 |
| CN1CC[C@@](O)(c2cc(-c3cccc(-c4cc(N)c5nc[nH]c(=O)c5n4)c3)no2)C1=O [Example 96, (R)-8-Amino-6-(3-(5-(3-hydroxy-1-methyl-2-oxopyrrolidin-3-yl)isoxazol-3-yl)phenyl)pyrido[3,2-d]pyrimidin-4(3H)-one] | > 0.501 | < 0.1 |
